Structures are written as SMILES. Residue numbers refer to the chain shown, from its start.

The subject of one assay is THP1 cells. As to the kind of experiment: CXCL10 ELISA, THP1 stimulation with cGAMP isomers. The format is cell-based. To be noted: Homo sapiens. As to the method:
Human THP1 cells were cultured in RPMI1640 (Life Technologies) containing 10% FBS, 2 mM glutamine (Life Technologies), 1 mM sodium pyruvate (Life Technologies), and 100 U/ml penicillin/streptomycin (Life Technologies).
(§1) Bone marrow derived murine macrophages and THP-1 cells were stimulated by incubation with cGAMP isomers at indicated concentrations for 18 hrs, or by Digitonin permeabilization (30 minutes) at indicated concentrations as described (Woodward et al., 2010). Cytokines in supernatants were determined after 18 hrs by ELISA. THP1 cells were plated at 8×10^4 cells per 96-well and treated as described above.
(§2) CXCL10 was measured using the BD Opteia human IP-10 ELISA Set according to manufacturer's recommendations. Murine IFN-α was determined by ELISA using antibody RMMA-1 for capture and rabbit-anti-murine IFN-α polyclonal antibody for detection (PBL Interferon Source, Piscataway, N.J.). Dose-response curves were fitted and EC50 values were determined with Graphpad Prism (Graph Pad Software Inc., San Diego, Calif.).

The subject of a further assay is murine BMDMs. As to the kind of experiment: IFN-α ELISA, BMDM stimulation with cGAMP isomers. The format is cell-based. The following applies: Mus musculus, BMDM - Ifna. As to the method:
as §1, §2

Another assay deals with T1, mSTING (mSting^R231) (Mus musculus, UniProt Q3TBT3).
T1 construct: Full-length hSTING (wt and substitutions) and mSTING (wt) constructs were used for this cellular assay; expressed in transfected cells; host or cells: HEK293T
As to the kind of experiment: IFN-β luciferase reporter, HEK293T cells with mSTING. The format is cell-based. The following applies: 5 and 10 μM, digitonin permeabilization, 12 h.

The target in another assay is T2, hSTING^R232 (Homo sapiens, UniProt Q86WV6, H232R).
T2 construct: Full-length hSTING (wt and substitutions) and mSTING (wt) constructs were used for this cellular assay; expressed in transfected cells; host or cells: HEK293T
As to the kind of experiment: IFN-β luciferase reporter, HEK293T cells with hSTING (hSTING^R232). To be noted: high concentrations, digitonin permeabilization. It is filed as cell-based. As to the method: (§3) Luciferase expression was determined after 12 h. […] Cells were lysed in Passive Lysis Buffer.
Luciferase assays for DMXAA experiments were performed as described above. Briefly, 3×10^4 293T cells were reverse-transfected with STING constructs (5 ng per 96-well) and reporter constructs (50 ng pIFNβ-Gluc, 10 ng pLenti-EF1-Fluc for normalization, 35 ng pMAX-empty as stuffer, delivered with TransIT-LT1, MirusBio, Madison Wis.). […] 12 hours after stimulation with STING-ligands, cells were resuspended in passive lysis buffer and luciferase activity was determined using the respective substrates Coelenterazine and D-Luciferin (PJK, Kleinblittersdorf, Germany). Gaussia Luciferase values were then normalized to constitutive Firefly Luciferase values (resulting in Relative Light Units, RLU).

Assay [1] addresses T3, hSTING S162A (hSTING^H232 and hSTING^R232 background) (Homo sapiens, UniProt Q86WV6, S162A).
T3 construct: Full-length hSTING (wt and substitutions) and mSTING (wt) constructs were used for this cellular assay; expressed in transfected cells; host or cells: HEK293T
The format is cell-based. To be noted: digitonin permeabilization.

The target in another assay is T4, hSTING^THP1 (Homo sapiens, UniProt Q86WV6, G230A/H232R/R293Q/R71H).
T4 construct: Full-length hSTING (wt and substitutions) and mSTING (wt) constructs were used for this cellular assay; expressed in transfected cells; host or cells: HEK293T
Put plainly: IFN-β luciferase reporter, HEK293T cells with hSTING^THP1. The format is cell-based. The following applies: high concentrations, digitonin permeabilization. The protocol:
as §3

Another assay has as its target T5, hSTING^H232 (Homo sapiens, UniProt Q86WV6).
T5 construct: Full-length hSTING (wt and substitutions) and mSTING (wt) constructs were used for this cellular assay; expressed in transfected cells; host or cells: HEK293T
Put plainly: IFN-β luciferase reporter, HEK293T cells with hSTING^H232. The format is cell-based. The following applies: digitonin permeabilization (30 min), 12 h.

For another assay, the target named is hSTING^R232 (aa 140-379) (Homo sapiens, UniProt Q86WV6, H232R). As to the kind of experiment: ITC binding, hSTING^R232 (wt hSTING).
The target of a further assay is T6, mSting^R231 (aa 139-378) (Mus musculus, UniProt Q3TBT3).
T6 sequence (Q3TBT3 139-378): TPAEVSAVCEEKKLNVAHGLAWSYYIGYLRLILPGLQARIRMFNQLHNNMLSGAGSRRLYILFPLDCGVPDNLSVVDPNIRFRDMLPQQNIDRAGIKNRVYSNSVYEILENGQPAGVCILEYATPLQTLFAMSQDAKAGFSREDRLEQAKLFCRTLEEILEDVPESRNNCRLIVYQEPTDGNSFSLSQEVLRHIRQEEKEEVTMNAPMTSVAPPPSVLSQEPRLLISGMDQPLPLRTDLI
Put plainly: ITC binding, mSting^R231.

Another assay deals with T7, hSTING^H232 (aa 140-379) (Homo sapiens, UniProt Q86WV6).
T7 construct: His6-SUMO (N, cleaved yes); made in house; host or cells: E. coli BL21 (DE3) RIL
As to the kind of experiment: ITC binding, hSTING^H232. To be noted: Protein: 0.2 mM; Ligands: 1 mM; 30 mM HEPES, 100 mM NaCl, pH 7.5; 25° C.

A further assay has as its target T8, mSting^A231 (aa 139-378) (Mus musculus, UniProt Q3TBT3, R231A).
T8 sequence (Q3TBT3 139-378 R231A): T6 sequence (Q3TBT3 139-378) with R93A
The following applies: Protein: 0.2 mM; Ligands: 1.0 mM; pH 7.5; 25° C.

In the next assay the test system is BMDMs. As to the kind of experiment: Western blot of Tbk1 and Irf3 phosphorylation in BMDMs. The format is cell-based, mouse. To be noted: 15 μM, 2 and 4 h post-treatment. As to the method:
BMDMs (1×10^6) were treated with cGAMP linkage isomers. At various times post-stimulation, the medium was removed and cells were collected. Whole-cell lysates were prepared at 2, 4, and 8 h post-treatment. Equal amounts of proteins were subjected to SDS-PAGE and transferred to a nitrocellulose membrane. Phosphorylation of IRF3 was determined using a rabbit polyclonal antibody specific for phosphoserine-396 of IRF3 (Cell signaling). The level of IRF3 was determined by using a rabbit polyclonal antibody against IRF3. Phosphorylation of TBK1 was determined using a rabbit monoclonal antibody specific for phosphoserine-172 of TBK1 (Cell Signaling). The level of TBK1 was determined by using a rabbit monoclonal antibody against TBK1 (Cell Signaling). Anti-glyceraldehyde-3-phosphate dehydrogenase (GADPH) was used as loading controls.

For assay [2], the system named is bone-marrow-derived macrophages (BMDMs). Put plainly: qPCR of Ifnb1, I16, Cc15 mRNAs in BMDMs. To be noted: differences to the other two isomers did not exceed three-fold.
[3] abbreviates: THP-1, 0.5 h, THP1 - CXCL10, +Digitonin (30 min).
The mark [4] stands for this setting: THP-1, THP1 - CXCL10, unpermeabilized, 18 h.
[5] abbreviates: Protein: 0.2 mM, Ligands: 0.9 mM, pH 7.5, 25° C.
The mark [6] stands for this setting: cGAMP isomers, Protein: 0.2 mM, Ligands: 0.9 mM, 100 mM NaCl, pH 7.5, 25° C.

T7 sequence (Q86WV6 140-379): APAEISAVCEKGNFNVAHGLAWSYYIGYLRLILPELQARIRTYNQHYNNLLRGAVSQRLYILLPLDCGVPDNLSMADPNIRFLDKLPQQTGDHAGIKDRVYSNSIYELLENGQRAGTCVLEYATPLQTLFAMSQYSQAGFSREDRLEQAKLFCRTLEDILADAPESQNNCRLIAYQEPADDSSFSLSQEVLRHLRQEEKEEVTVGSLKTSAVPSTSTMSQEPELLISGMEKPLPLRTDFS
Chain of hSTING^R232 (aa 140-379) (Q86WV6 140-379 H232R): as the sequence (Q86WV6 140-379) above, with H93R counted along it
T1 sequence (Q3TBT3 whole entry): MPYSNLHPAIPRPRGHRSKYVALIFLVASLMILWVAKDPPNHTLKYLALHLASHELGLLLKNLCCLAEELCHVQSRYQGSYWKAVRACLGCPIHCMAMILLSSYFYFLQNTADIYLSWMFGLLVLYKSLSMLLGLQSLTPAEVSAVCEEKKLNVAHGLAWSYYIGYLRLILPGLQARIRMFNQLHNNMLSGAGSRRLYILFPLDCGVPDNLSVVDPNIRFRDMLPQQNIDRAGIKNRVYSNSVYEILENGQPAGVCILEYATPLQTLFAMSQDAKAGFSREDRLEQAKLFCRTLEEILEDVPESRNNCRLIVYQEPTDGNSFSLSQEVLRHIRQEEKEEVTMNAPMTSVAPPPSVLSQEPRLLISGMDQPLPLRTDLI
T5 sequence (Q86WV6 whole entry): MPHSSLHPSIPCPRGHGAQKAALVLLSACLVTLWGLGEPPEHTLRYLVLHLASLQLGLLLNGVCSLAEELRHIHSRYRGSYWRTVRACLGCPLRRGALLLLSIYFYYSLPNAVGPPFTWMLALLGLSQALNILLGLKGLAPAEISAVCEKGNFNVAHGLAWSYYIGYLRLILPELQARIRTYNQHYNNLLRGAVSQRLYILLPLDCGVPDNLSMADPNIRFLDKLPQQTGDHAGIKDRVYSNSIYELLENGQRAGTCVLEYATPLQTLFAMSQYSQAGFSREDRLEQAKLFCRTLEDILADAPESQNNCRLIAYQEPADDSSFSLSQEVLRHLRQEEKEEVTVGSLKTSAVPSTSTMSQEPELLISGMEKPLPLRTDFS
T3 sequence (Q86WV6 whole entry S162A): as the sequence (Q86WV6 whole entry) above, with S162A counted along it
T4 sequence (Q86WV6 whole entry R71H/G230A/H232R/R293Q): as the sequence (Q86WV6 whole entry) above, with R71H, G230A, H232R, R293Q counted along it
T2 sequence (Q86WV6 whole entry H232R): as the sequence (Q86WV6 whole entry) above, with H232R counted along it

Regarding `Nc1nc2c(ncn2[C@@H]2O[C@@H]3COP(=O)(O)O[C@H]4[C@@H](O)[C@H](n5cnc6c(N)ncnc65)O[C@@H]4COP(=O)(O)O[C@@H]2[C@@H]3O)c(=O)[nH]1`, the EC50 came out at 140 nM in the assay with THP1 cells (setting [3]); 3400 nM with THP1 cells (setting [4]); 290 nM in the assay with murine BMDMs (0.5 h, +Digitonin (30 min)); 12500 nM in the assay with murine BMDMs (unpermeabilized, 18 h).
As to `Nc1nc2c(ncn2[C@@H]2O[C@@H]3COP(=O)(O)O[C@H]4[C@@H](O)[C@H](n5cnc6c(=O)[nH]c(N)nc65)O[C@@H]4COP(=O)(O)O[C@H]3[C@H]2O)c(=O)[nH]1` [c[di-GMP], cyclic di-GMP], the “IFN luciferase reporter response to c[di-GMP]” value is “stimulated mSting” at mSTING (mSting^R231), “residual response” on hSTING^R232, “not restoring c[di-GMP] responsiveness” in [1] and “residual response” on hSTING^THP1.
Turning to `Nc1nc2c(ncn2[C@@H]2O[C@@H]3COP(=O)(O)O[C@@H]4[C@H](O)[C@@H](COP(=O)(O)O[C@@H]2[C@@H]3O)O[C@H]4n2cnc3c(N)ncnc32)c(=O)[nH]1`, on hSTING^H232, the “IFN luciferase reporter dose-response to cGAMP isomers” value was “no significant differences in stimulation”. The results for the dissociation constant (Kd) on hSTING^R232 (aa 140-379), at mSting^R231 (aa 139-378) and at hSTING^H232 (aa 140-379) were 170 ± 20 nM, 180 ± 20 nM and 2500 ± 100 nM, respectively. Besides, the TΔS result was “+14.88 Kcal/mol” on hSTING^R232 (aa 140-379) (setting [5]), “+13.12 Kcal/mol” at mSting^R231 (aa 139-378) (setting [6]) and “+0.37 Kcal/mol” on hSTING^H232 (aa 140-379). The ΔG at hSTING^R232 (aa 140-379) (setting [5]) was -9.25 kcal/mol; on mSting^R231 (aa 139-378) (setting [6]), -9.20 kcal/mol; on hSTING^H232 (aa 140-379), -7.52 kcal/mol. Also, the ΔH entry on hSTING^R232 (aa 140-379) (setting [5]) is “+5.63 Kcal/mol”; at mSting^R231 (aa 139-378) (setting [6]), “+3.92 Kcal/mol”; at hSTING^H232 (aa 140-379) it was -7.15 kcal/mol. The EC50 was determined as 120 nM in the assay on THP1 cells (setting [3]); 1200 nM with THP1 cells (setting [4]); 800 nM in the assay on murine BMDMs (0.5 h, +Digitonin (30 min)); 12500 nM with murine BMDMs (unpermeabilized, 18 h).
As for `Nc1nc2c(ncn2[C@@H]2O[C@@H]3COP(=O)(O)O[C@H]4[C@@H](O)[C@H](n5cnc6c(N)ncnc65)O[C@@H]4COP(=O)(O)O[C@H]3[C@H]2O)c(=O)[nH]1`, the TΔS result on mSting^A231 (aa 139-378) is recorded as “+0.65 Kcal/mol”; at mSting^R231 (aa 139-378) (setting [6]) it was “+12.94 Kcal/mol”. Also, the ΔG on mSting^A231 (aa 139-378) is -8.01 kcal/mol. In addition, the ΔH at mSting^A231 (aa 139-378) is -7.36 kcal/mol; at mSting^R231 (aa 139-378) (setting [6]) it was “+3.95 Kcal/mol”. Moreover, the EC50 with THP1 cells (setting [3]) was 330 nM; with THP1 cells (setting [4]), 5700 nM; in the assay with murine BMDMs (0.5 h, +Digitonin (30 min)), 420 nM; in the assay on murine BMDMs (unpermeabilized, 18 h), 8400 nM. The “Tbk1 and Irf3 protein phosphorylation” value with BMDMs is reported as “highest levels”. Also, the “potency in induction of Ifnb1, I16, Cc15 among the three cGAMP isomers” value in [2] is “most potent compound”.

For the origin of these results see patent US10176292B2, “STING crystals and modulators” (MEMORIAL SLOAN-KETTERING CANCER CENTER, priority 2013, dated 2019).
